Measurements as given in PubChem BioAssay (NCI).
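How tested: cells in 96-well plates exposed to compound for 48 hours at five concentrations. At the GI50, growth is halved. The concentration for full growth arrest is given as TGI.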

Assays:
Test in all cases: DTP human tumour cell line panel, 48 h
A549 NSCLC = tested on: A549 NSCLC
MCF7 breast = tested on: MCF7 breast
UO-31 renal = tested on: UO-31 renal
K-562 leukemia = tested on: K-562 leukemia
NCI-H23 lung = tested on: NCI-H23 lung
OVCAR-4 ovarian = tested on: OVCAR-4 ovarian
SF-295 CNS = tested on: SF-295 CNS
RPMI-8226 leukemia = tested on: RPMI-8226 leukemia
MDA-MB-435 = tested on: MDA-MB-435
NCI-H460 lung = tested on: NCI-H460 lung

Structure (SMILES) | TGI (A549 NSCLC) [µM] | TGI (MCF7 breast) [µM] | TGI (UO-31 renal) [µM] | TGI (K-562 leukemia) [µM] | TGI (NCI-H23 lung) [µM] | TGI (OVCAR-4 ovarian) [µM] | TGI (SF-295 CNS) [µM] | TGI (RPMI-8226 leukemia) [µM] | TGI (MDA-MB-435) [µM] | TGI (NCI-H460 lung) [µM] | GI50 (A549 NSCLC) [µM] | GI50 (MCF7 breast) [µM] | GI50 (UO-31 renal) [nM] | GI50 (K-562 leukemia) [nM] | GI50 (NCI-H23 lung) [nM] | GI50 (OVCAR-4 ovarian) [nM] | GI50 (SF-295 CNS) [nM] | GI50 (RPMI-8226 leukemia) [nM] | GI50 (MDA-MB-435) [nM] | GI50 (NCI-H460 lung) [nM]
CC(C)(C)c1cc([N+](=O)[O-])cc([N+](=O)[O-])c1O | > 10 | > 10 | > 10 | > 10 | > 10 | > 10 | > 10 | > 10 | > 10 | > 10 | – | – | – | – | – | – | – | – | – | –
C=C(C)[C@@H]1CC[C@]2(COCCCN)CC[C@]3(C)[C@H](CC[C@@H]4[C@@](C)(CCCNCCCN)[C@H](C(=C)C)CC[C@]43C)[C@@H]12 | 3.63 | 3.22 | 2.77 | 3.57 | 3.63 | 3.17 | 3.83 | 5.08 | 3.41 | 3.44 | 1.89 | 1.59 | 1430 | 1670 | 1790 | 1720 | 1940 | 2200 | 1840 | 1800
Cc1nnc(-c2ccc(C)c(-c3ccc(C(=O)Nc4cccc(C#N)c4)cc3)c2)o1 | > 25 | > 25 | > 25 | > 25 | > 25 | > 25 | > 25 | > 25 | > 25 | > 25 | > 25 | > 25 | > 25000 | > 25000 | > 25000 | 17700 | > 25000 | > 25000 | > 25000 | > 25000
CN(C)Cc1cc(C(F)(F)F)ccc1C(O)(c1ccccc1)c1ccccc1 | 29.5 | 27.4 | 28.5 | 24.4 | 79.3 | 37.5 | 50 | 21.5 | 58 | 28.1 | – | – | – | – | – | – | – | – | – | –
CC/C=C\C[C@H]1CC=C2C(=O)C=C[C@@H]2CC=CCCCC(=O)O[C@@H](CCCCC)CC=C2C(=O)C=C[C@@H]2CC=CCCCC(=O)O[C@@H](CCCCC)CC=C2C(=O)C=C[C@@H]2CC=CCCCC(=O)O[C@@H](CCCCC)CC=C2C(=O)C=C[C@@H]2CC=CCCCC(=O)O1 | > 7.9 | > 7.9 | 2.84 | > 7.9 | > 7.9 | > 7.9 | 6.32 | 5.83 | 4.54 | > 7.9 | 3.59 | 1.46 | 1410 | 2500 | 2340 | 2200 | 2020 | 1830 | 1590 | 2450
Cc1ccc(S(=O)(=O)N=Nc2c(O)[nH]c3cc(O)c(C(=O)O)cc23)cc1 | > 100 | > 100 | > 100 | > 100 | > 100 | > 100 | > 100 | > 100 | > 100 | > 100 | – | – | – | – | – | – | – | – | – | –
Oc1ccc2ccccc2c1N=Nc1cccc2ccccc12 | > 100 | > 100 | > 100 | > 100 | > 100 | > 100 | > 100 | > 100 | > 100 | > 100 | – | – | – | – | – | – | – | – | – | –
COc1ccc2c(c1)C(=O)CCc1cc(OC)c(OC)c(OC)c1-2 | > 100 | > 100 | > 100 | > 100 | 0.0617 | > 100 | > 100 | > 100 | 0.0717 | > 100 | < 0.01 | – | < 10 | < 10 | < 10 | 818 | < 10 | < 10 | – | < 10
COc1ccc(C(C#N)NC23CC4CC(CC(C4)C2)C3)cc1 (stereo unspecified) | > 100 | > 100 | > 100 | > 100 | > 100 | > 100 | > 100 | > 100 | > 100 | > 100 | – | – | – | – | – | – | – | – | – | –
O=C1C=CC(=O)C2C1C1(Cl)C(Cl)=C(Cl)C2(Cl)C1(Cl)Cl (stereo unspecified) | 26.5 | 31.1 | 16.1 | 10.8 | 26.3 | > 100 | 6.62 | > 100 | 4.06 | 9.04 | 5.5 | 8.55 | 3410 | 2580 | 4850 | 7380 | 1910 | 4780 | 1690 | 3060
CC(C)CNc1nc(-c2ccccc2Cl)nc2ccccc12 | 33.5 | 47.7 | 49.2 | 43.5 | 31 | 50.5 | 28.4 | 32.7 | 30.8 | 36.1 | 14.1 | 22.6 | 17100 | 16800 | 16200 | 17100 | 14900 | 12600 | 16500 | 18300
C#CC1(O)C(COP(=O)(O)OCC(COP(=O)(O)OCC2OC(n3cc(F)c(=O)[nH]c3=O)CC2O)OCCCCCCCCCCCCCCCCCC)OC(n2ccc(N)nc2=O)C1O (stereo unspecified) | > 68.3 | > 32 | – | > 100 | 8.72 | > 100 | 16.3 | > 100 | > 27.2 | – | 0.117 | < 0.01 | 461 | 338 | 280 | 992 | 55.5 | 111 | 566 | < 10
Cc1cn(C2CC(OC(=O)c3ccc(Cl)cc3)C(COC(=O)c3ccc(Cl)cc3)O2)c(=O)[nH]c1=O (stereo unspecified) | > 100 | > 100 | > 100 | > 100 | > 100 | > 100 | > 100 | > 100 | > 100 | > 100 | – | – | – | – | – | – | – | – | – | –
